In patent US10358434B2, “2-(3-pyridinyl)-1H-benzimidazole derivative compound and medicament containing same” (NIHON MEDI-PHYSICS CO., LTD., priority 2014, dated 2019):

Columns and labels:
[1] = tested on: human adrenal gland section expressing aldosterone-producing adenoma; assay: In vitro autoradiography using human adrenal adenoma; assay type: binding
Method in brief: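 Frozen 7-μm sections of human adrenal bearing aldosterone-producing adenoma were immersed 10 min in radioligand (5-33 kBq/mL) in PBS with 1% fatty-acid-free BSA, washed, then exposed to imaging plates for 16-20 h. Equal-area ROI PSL in adenoma (B2) versus normal cortex (B1) gave B2/B1, corrected for nuclide half-life, added activity and exposure time.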

[2] = In vivo kinetics experiment (radioactivity distribution); design: species or system Wistar male rat; conditions: rat; for Adrenal gland/blood ratio of radioactivity accumulation / Adrenal gland/fat ratio of radioactivity accumulation / Adrenal gland/kidney ratio of radioactivity accumulation / Adrenal gland/liver ratio of radioactivity accumulation / Adrenal gland/muscle ratio of radioactivity accumulation / Adrenal gland/small intestine ratio of radioactivity accumulation / Radioactivity distribution Adrenal gland / Radioactivity distribution Bladder (including urine) / Radioactivity distribution Blood / Radioactivity distribution Fat / Radioactivity distribution Heart / Radioactivity distribution Kidney / Radioactivity distribution Large intestine / Radioactivity distribution Liver / Radioactivity distribution Lung / Radioactivity distribution Muscle (lower limbs) / Radioactivity distribution Remaining whole body / Radioactivity distribution Small intestine / Radioactivity distribution Spleen / Radioactivity distribution Stomach / Radioactivity distribution Testis / Radioactivity distribution Thyroid gland / Radioactivity distribution Whole brain: caudal vein
Method in brief: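 Male Wistar rats (9 weeks) under isoflurane received approximately 1 to 3.7 MBq radiotracer in saline with 1 w/v % ascorbic acid by tail-vein injection. At 10, 30 and 60 min, rats were exsanguinated; blood, organs and remaining body weighed and counted, giving % ID/g and adrenal-to-tissue ratios.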

[3] = Plasma stability evaluation (TLC analysis); assay type: in vitro ADME; conditions: 37° C., 60 minutes
Method in brief: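 Radiolabelled compounds were incubated in heparin-treated pooled normal human plasma at 37° C for 60 minutes. After methanol deproteinization and centrifugation, stability was assessed by TLC under the conditions used for each compound's synthesis.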

In the case of `FCCn1c(-c2cncc(Cn3ccnc3)c2)nc2cc(F)c([123I])cc21` [[^123I] 400, 5-Fluoro-1-(2-fluoroethyl)-2-[5-(imidazol-1-ylmethyl)pyridin-3-yl]-6-[^123I]iodobenzimidazole], the “accumulation of radioactivity in adrenal gland section (autoradiogram)” value ([1]; FIGS. 18 to 31) is reported as “accumulation of radioactivity was selectively observed in a region in which aldosterone-producing adenoma had been pathologically observed”, the B2/B1 accumulation ratio ([1]; section of FIG. 17(a)) is reported as 2.89 and the “B2 (PSL value, aldosterone-producing adenoma)” value ([1]; section of FIG. 17(a), site 71a) is reported as 4611. For the same compound, the “B1 (PSL value, normal adrenal cortex)” value ([1]; section of FIG. 17(a), site 72a) was 1596, the “accumulation of radioactivity in adrenal gland vs blood and peripheral tissues” value ([2]; Tables 9 to 22) was “high accumulation of radioactivity in adrenal gland was observed, in comparison to in blood and peripheral tissues” and the “Adrenal gland/blood ratio of radioactivity accumulation” value (from here on “Adrenal gland/blood ratio”) ([2]; 10 min after administration) was 28.34. The “Adrenal gland/fat ratio of radioactivity accumulation” value (from here on “Adrenal gland/fat ratio”) ([2]; 10 min after administration) was 89.23, the “Adrenal gland/kidney ratio of radioactivity accumulation” value (“Adrenal gland/kidney ratio” below) ([2]; 10 min after administration) was 5.85 and the “Adrenal gland/liver ratio of radioactivity accumulation” value (from here on “Adrenal gland/liver ratio”) ([2]; 10 min after administration) was 3.02. For the same compound, the “Adrenal gland/muscle ratio of radioactivity accumulation” value (from here on “Adrenal gland/muscle ratio”) ([2]; 10 min after administration) was 54.21, the “Adrenal gland/small intestine ratio of radioactivity accumulation” value (shortened to “Adrenal gland/small intestine ratio”) ([2]; 10 min after administration) was 6.95 and the “Radioactivity distribution Adrenal gland” value ([2]; 10 min after administration) was 9.09 % ID/g. For the same compound, the “Radioactivity distribution Bladder (including urine)” value (“Radioactivity distribution Bladder” for short) ([2]; 10 min after administration) was 0.32 % ID/g, the “Radioactivity distribution Blood” value ([2]; 10 min after administration) was 0.32 % ID/g and the “Radioactivity distribution Fat” value ([2]; 10 min after administration) was 0.10 % ID/g. The “Radioactivity distribution Heart” value ([2]; 10 min after administration) was 0.63 % ID/g, the “Radioactivity distribution Kidney” value ([2]; 10 min after administration) was 1.54 % ID/g and the “Radioactivity distribution Large intestine” value ([2]; 10 min after administration) was 0.19 % ID/g. The “Radioactivity distribution Liver” value ([2]; 10 min after administration) was 2.98 % ID/g, the “Radioactivity distribution Lung” value ([2]; 10 min after administration) was 1.06 % ID/g and the “Radioactivity distribution Muscle (lower limbs)” value ([2]; 10 min after administration) was 0.17 % ID/g. The “Radioactivity distribution Remaining whole body” value ([2]; 10 min after administration) was 0.27 % ID/g, the “Radioactivity distribution Small intestine” value ([2]; 10 min after administration) was 1.30 % ID/g and the “Radioactivity distribution Spleen” value ([2]; 10 min after administration) was 5.26 % ID/g. For the same compound, the “Radioactivity distribution Stomach” value ([2]; 10 min after administration) was 1.03 % ID/g, the “Radioactivity distribution Testis” value ([2]; 10 min after administration) was 0.07 % ID/g and the “Radioactivity distribution Thyroid gland” value ([2]; 10 min after administration) was 3.54 % ID/g. For the same compound, the “Radioactivity distribution Whole brain” value ([2]; 10 min after administration) was 0.02 % ID/g, the “Adrenal gland/blood ratio” value ([2]; 30 min after administration) was 40.26 and the “Adrenal gland/fat ratio” value ([2]; 30 min after administration) was 147.73. The “Adrenal gland/kidney ratio” value ([2]; 30 min after administration) was 17.90, the “Adrenal gland/liver ratio” value ([2]; 30 min after administration) was 13.82 and the “Adrenal gland/muscle ratio” value ([2]; 30 min after administration) was 110.91. The “Adrenal gland/small intestine ratio” value ([2]; 30 min after administration) was 9.24, the “Radioactivity distribution Adrenal gland” value ([2]; 30 min after administration) was 16.93 % ID/g and the “Radioactivity distribution Bladder” value ([2]; 30 min after administration) was 1.35 % ID/g. The “Radioactivity distribution Blood” value ([2]; 30 min after administration) was 0.43 % ID/g, the “Radioactivity distribution Fat” value ([2]; 30 min after administration) was 0.12 % ID/g and the “Radioactivity distribution Heart” value ([2]; 30 min after administration) was 0.49 % ID/g. For the same compound, the “Radioactivity distribution Kidney” value ([2]; 30 min after administration) was 0.95 % ID/g, the “Radioactivity distribution Large intestine” value ([2]; 30 min after administration) was 0.19 % ID/g and the “Radioactivity distribution Liver” value ([2]; 30 min after administration) was 1.24 % ID/g. The “Radioactivity distribution Lung” value ([2]; 30 min after administration) was 0.76 % ID/g, the “Radioactivity distribution Muscle (lower limbs)” value ([2]; 30 min after administration) was 0.15 % ID/g and the “Radioactivity distribution Remaining whole body” value ([2]; 30 min after administration) was 0.31 % ID/g. The “Radioactivity distribution Small intestine” value ([2]; 30 min after administration) was 1.83 % ID/g, the “Radioactivity distribution Spleen” value ([2]; 30 min after administration) was 5.44 % ID/g and the “Radioactivity distribution Stomach” value ([2]; 30 min after administration) was 2.24 % ID/g. For the same compound, the “Radioactivity distribution Testis” value ([2]; 30 min after administration) was 0.12 % ID/g, the “Radioactivity distribution Thyroid gland” value ([2]; 30 min after administration) was 9.97 % ID/g and the “Radioactivity distribution Whole brain” value ([2]; 30 min after administration) was 0.02 % ID/g. For the same compound, the “Adrenal gland/blood ratio” value ([2]; 60 min after administration) was 29.41 ± 3.13, the “Adrenal gland/fat ratio” value ([2]; 60 min after administration) was 105.17 ± 28.98 and the “Adrenal gland/kidney ratio” value ([2]; 60 min after administration) was 18.87 ± 3.12. The “Adrenal gland/liver ratio” value ([2]; 60 min after administration) was 16.66 ± 3.13, the “Adrenal gland/muscle ratio” value ([2]; 60 min after administration) was 95.38 ± 22.07 and the “Adrenal gland/small intestine ratio” value ([2]; 60 min after administration) was 6.64 ± 2.31. The “Radioactivity distribution Adrenal gland” value ([2]; 60 min after administration) was 11.65 ± 1.54 % ID/g, the “Radioactivity distribution Bladder” value ([2]; 60 min after administration) was 1.27 ± 0.07 % ID/g and the “Radioactivity distribution Blood” value ([2]; 60 min after administration) was 0.40 ± 0.01 % ID/g. For the same compound, the “Radioactivity distribution Fat” value ([2]; 60 min after administration) was 0.11 ± 0.02 % ID/g, the “Radioactivity distribution Heart” value ([2]; 60 min after administration) was 0.35 ± 0.03 % ID/g and the “Radioactivity distribution Kidney” value ([2]; 60 min after administration) was 0.62 ± 0.08 % ID/g. The “Radioactivity distribution Large intestine” value ([2]; 60 min after administration) was 0.43 ± 0.19 % ID/g, the “Radioactivity distribution Liver” value ([2]; 60 min after administration) was 0.70 ± 0.05 % ID/g and the “Radioactivity distribution Lung” value ([2]; 60 min after administration) was 0.60 ± 0.03 % ID/g. The “Radioactivity distribution Muscle (lower limbs)” value ([2]; 60 min after administration) was 0.12 ± 0.02 % ID/g, the “Radioactivity distribution Remaining whole body” value ([2]; 60 min after administration) was 0.33 ± 0.02 % ID/g and the “Radioactivity distribution Small intestine” value ([2]; 60 min after administration) was 1.85 ± 0.44 % ID/g. The “Radioactivity distribution Spleen” value ([2]; 60 min after administration) was 5.27 ± 0.89 % ID/g, the “Radioactivity distribution Stomach” value ([2]; 60 min after administration) was 4.35 ± 0.25 % ID/g and the “Radioactivity distribution Testis” value ([2]; 60 min after administration) was 0.15 ± 0.01 % ID/g. The “Radioactivity distribution Thyroid gland” value ([2]; 60 min after administration) was 19.76 ± 1.03 % ID/g, the “Radioactivity distribution Whole brain” value ([2]; 60 min after administration) was 0.02 ± 0.00 % ID/g and the “stability in human plasma” value [3] was “hardly metabolized and decomposed in the plasma”. For the same compound, the “Radiochemical purity after incubation in human plasma” value ([3]; TLC analysis) was 88%.
